Measurements: article PMC9698323, “Interaction of Destruxin A with Three Silkworm Proteins: BmCRT, BmDPP3, and BmPDIA5” (Molecules, 2022)
Square brackets hold non-standard residues; d marks the D form. Peptide text beside a SMILES is read from it. dLac(3-vinyl) = C=CC[C@@H](O)C(=O)O; NMeV = CN[C@H](C(=O)O)C(C)C; NMeA = CN[C@@H](C)C(=O)O; βAla = NCCC(=O)O

How the values were obtained:
BmCRT (calreticulin) = biological target: T1, BmCRT (calreticulin) (Bombyx mori, UniProt Q7Z1E6); assay: SPR (Biacore 8K), multi-cycle kinetics; format: binding
T1 construct: gene crt
T1 sequence (Q7Z1E6 20-398): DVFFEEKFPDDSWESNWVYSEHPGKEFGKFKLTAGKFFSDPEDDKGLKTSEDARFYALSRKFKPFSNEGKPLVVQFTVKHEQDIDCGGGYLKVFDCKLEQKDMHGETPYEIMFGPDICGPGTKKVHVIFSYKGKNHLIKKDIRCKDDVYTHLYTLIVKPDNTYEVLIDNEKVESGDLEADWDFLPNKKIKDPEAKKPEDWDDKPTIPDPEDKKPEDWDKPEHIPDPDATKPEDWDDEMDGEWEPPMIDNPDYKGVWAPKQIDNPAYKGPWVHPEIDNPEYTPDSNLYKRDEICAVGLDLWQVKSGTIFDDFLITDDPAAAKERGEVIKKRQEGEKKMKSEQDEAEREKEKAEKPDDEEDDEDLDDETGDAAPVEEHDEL

[1] = biological target: BmPDIA5 (protein disulfide isomerase A5); assay: SPR (Biacore 8K), multi-cycle kinetics; format: binding, Bombyx mori; conditions: 1 × PBSP, 5% DMSO; DA 15.6-250 µmol/L

## C=CC[C@H]1OC(=O)CCNC(=O)[C@H](C)N(C)C(=O)[C@H](C(C)C)N(C)C(=O)[C@H]([C@@H](C)CC)NC(=O)[C@@H]2CCCN2C1=O [DA, Destruxin A] (cyclo([dLac(3-vinyl)]PI[NMeV][NMeA][βAla]))
BmCRT (calreticulin)
  Kd: 198 µM
[1]
  Kd: 92.6 µM
